The values below are quoted from earlier work in US7351710B2, “Preparation of amorphous form of indiplon” (Mai De Ltd., priority 2005, dated 2008).

For orientation: solubility means the concentration that dissolves in the medium under given conditions.

In the case of `CC(=O)N(C)c1cccc(-c2ccnc3c(C(=O)c4cccs4)cnn23)c1` [crystalline indiplon, N-Methyl-N-[3-[3-[2-thienylcarbonyl]pyrazolo[1,5-a]pyrimidin-7-yl]phenyl]acetamide], the solubility (in water, crystalline form) is 20 to 30 µg/mL.

With `CC(=O)N(C)c1cccc(-c2ccnc3c(C(=O)c4cccs4)cnn23)c1` [Indiplon, N-Methyl-N-[3-[3-[2-thienylcarbonyl]pyrazolo[1,5-a]pyrimidin-7-yl]phenyl]acetamide], the “solubility in water (in words)” value (water) is reported as “practically insoluble”.
